The target of assay [1] is T1, Neurotensin receptor type 1 (Homo sapiens, UniProt P30989). Nature of the assay: Displacement of [125I]Tyr3-NT from human NTS1R expressed in WiDr cells. It counts as cell-based. Background: In a radioligand displacement assay an active substance lowers the binding of a labelled ligand.
Assay [2] addresses T1, Neurotensin receptor type 1. Nature of the assay: Displacement of [125I]Tyr3-NT from human NTS1R expressed in HT29 cells. It is filed as cell-based, HT-29.
The target is the same in assay [3]. The assay is described as follows: Displacement of [125I]Tyr3-NT from NTS1R in human exocrine ductal pancreatic carcinoma.

Starred links: 1 amine or outer side, 2 acyl side, 3 side chain; linkers in the order of their positions; H or OH if unused. Non-standard residues stand in square brackets, D forms with d. Residues, ends and D or L forms follow the SMILES beside them. Groups on a side chain read outwards from the residue. *: point of attachment. X1 = NC(N)=NCCCC(CN([C@@H](CCCN=C(N)N)C(=O)[*:2])[*:1])N[*:3]; X3 = NCCCCC(CN([C@@H](CCCN=C(N)N)C(=O)[*:2])[*:1])N[*:3]; Tle = CC(C)(C)[C@H](N)C(=O)O; X2 = NCCNCC(CNCCN)C(=O)*

Experimental findings from ChEMBL document CHEMBL1138946, “Toward stable N4-modified neurotensins for NTS1-receptor-targeted tumor imaging with 99mTc” (J Med Chem, 2006) are described below.

T1 sequence (P30989 whole entry): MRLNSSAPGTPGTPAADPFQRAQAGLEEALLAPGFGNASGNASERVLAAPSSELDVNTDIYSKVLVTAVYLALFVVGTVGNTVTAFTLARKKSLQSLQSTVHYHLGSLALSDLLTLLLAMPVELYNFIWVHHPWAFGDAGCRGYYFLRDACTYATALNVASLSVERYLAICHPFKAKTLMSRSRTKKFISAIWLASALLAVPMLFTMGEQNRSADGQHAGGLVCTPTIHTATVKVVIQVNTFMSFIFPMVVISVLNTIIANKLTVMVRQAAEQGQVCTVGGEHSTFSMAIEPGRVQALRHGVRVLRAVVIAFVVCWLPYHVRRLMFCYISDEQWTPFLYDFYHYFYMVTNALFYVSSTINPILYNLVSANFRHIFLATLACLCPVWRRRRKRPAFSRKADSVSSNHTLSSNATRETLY

For orientation: IC50 means the concentration at which inhibition is half-maximal. Consider `CC[C@H](C)[C@H](NC(=O)[C@H](Cc1ccc(O)cc1)NC(=O)[C@@H]1CCCN1C(=O)[C@H](CCCN=C(N)N)NCC(CCCCN)NC(=O)CNC(=O)C(CNCCN)CNCCN)C(=O)N[C@@H](CC(C)C)C(=O)O` (stereo partly drawn) [DEMOTENSIN 2] (H-[X3]([Gly-X2])PYIL-OH), for which the concentration for half-maximal inhibition (IC50) in assay [1] is 0.18 nM; in assay [2] it was 0.41 nM.
Taken in the same sequence, the figures for `CC(C)C[C@H](NC(=O)[C@@H](NC(=O)[C@H](Cc1ccc(O)cc1)NC(=O)[C@@H]1CCCN1C(=O)[C@H](CCCN=C(N)N)NCC(CCCCN)NC(=O)CNC(=O)C(CNCCN)CNCCN)C(C)(C)C)C(=O)O` (stereo partly drawn) [DEMOTENSIN 3] (H-[X3]([Gly-X2])PY[Tle]L-OH) were 0.66 nM and 1.5 nM.
`CC(C)C[C@H](NC(=O)[C@@H](NC(=O)[C@H](Cc1ccc(O)cc1)NC(=O)[C@@H]1CCCN1C(=O)[C@H](CCCN=C(N)N)NCC(CCCN=C(N)N)NC(=O)CNC(=O)C(CNCCN)CNCCN)C(C)(C)C)C(=O)O` (stereo partly drawn) [DEMOTENSIN 4] (H-[X1]([Gly-X2])PY[Tle]L-OH): the IC50 amounted to 2.9 nM in assay [3], 0.51 nM in assay [1] and 0.85 nM in assay [2].
Turning to `CC[C@H](C)[C@H](NC(=O)[C@H](Cc1ccc(O)cc1)NC(=O)[C@@H]1CCCN1C(=O)[C@H](CCCN=C(N)N)NC(=O)[C@H](CCCN=C(N)N)NC(=O)CNC(=O)C(CNCCN)CNCCN)C(=O)N[C@@H](CC(C)C)C(=O)O` [Demotensin 1] (X2-GRRPYIL-OH), the half-inhibitory concentration (IC50) in assay [2] was found to be 0.32 nM.
